In patent US11534412B2, “Application of totarol and pharmaceutical composition containing totarol” (Emergopharm SP. Z O.O. SP.K., priority 2017, dated 2022):

Tested on: Gardnerella vaginalis - clinical strain
Test: Determination of the MIC value of totarol, broth dilution in 96-well plates with OD and quantitative culture
Format: cell-based
Settings: for OD, average of 3 measurements: 620 nm
Protocol: Test of antibacterial activity of totarol using DMI (dimethylisosorbide) as a solvent.
A suspension of 0.5 McF in physiological saline (suspension density 10^8 cfu/ml) was prepared from a 24-hour culture of a standard strain. 1 ml of the suspension was collected to 9 ml of a TSB broth ([…]). Suspensions with a dilution of 10^−6 were prepared in the described way. A suspension with a cell density of 10^5 cfu/ml was selected for further investigations. For each strain, 2 96-well plates were prepared: the first one was intended for the OD measurement, the second one—for quantitative culture on solid media. • A/ to wells B1-D1, B2-D2 and B-D 4-11, 100 µl of the broth were added; • B/ to wells B3-D3, 200 µl of the broth were added; • C/ to wells B1-D1, 1 µl of stock I was added; • D/ to wells B2-D2, 1 µl of stock II was added; • E/ to wells B3-D3, 2 µl of stock III were added. Using a multichannel pipette, 100 µl of the sample were collected from each of the B3-D3 wells and placed in wells B4-D4 (mixing by sucking the content in and letting it out for 5 times). The pipette tips were replaced and 100 µl of the content were collected from of the B4-D4 wells, and placed in wells B5-D5, mixing as previously. These operations were repeated through the wells B11-D11. The content in the B11-D11 wells was mixed, and 100 µl of the fluid were collected and discarded. This way, a series of dilutions of totarol samples in DMI in the range of 0.32% to 0.0004% was obtained. Then, 100 µl of a corresponding bacterial culture were added to the wells B, C, D 1-11. In consequence, a change in the final concentration range occurred, to 0.16%-0.0002%. Control Preparation: • Negative control: 100 µl of the broth+1 pl DMI were added to the Al well. • Positive control (I): 100 µl of the broth with the bacterial culture were added to the wells E1-G1. • Diluent positive control (II): 100 µl of the broth with the bacterial culture+1 pl DMI were added to the wells E2-G2. The OD value in the individual wells was read at the wavelength of 620 nm (read time 0). From the second 96-well plate, a culture was inoculated by a quantitative method from every dilution onto a well with a proper solid medium, and incubated for 24 h at 37° C. under aerobic or anaerobic conditions, depending on the strain. The plates were incubated under aerobic conditions or in an atmosphere of an elevated CO2 concentration (for the strains requiring it) in an incubator at 37° C. The OD was read after 8 h, 16 h, and 24 h, respectively. Before every OD measurement, the contents of the wells were mixed delicately. In parallel to the OD readout, cultures we inoculated from the second 96-well plate, from every dilution, into plates with a proper solid medium, and incubated for 24 h at 37° C., under aerobic or anaerobic conditions. For the analysis of the experimental results, an average value of the OD measurement obtained from three repetitions in the individual times (0, 8, 16, and 24 h) for the individual microbes (Gardnerella vaginalis, Streptococcus agalactiae, Enterococcus faecalis, Lactobacillus gasseri/plantarum) was taken. Additionally, the number of bacteria grown on solid media was taken into account. The results of the tests confirm the specific, concentration-dependent selectiveness, and the high antibacterial effectiveness of totarol against the pathogenic microorganisms: Gardnerella vaginalis, Streptococcus agalactiae, Enterococcus faecalis at low MIC values safe for bacteria of the Lactobacillus genus.

SMILES: CC(C)c1c(O)ccc2c1CC[C@H]1C(C)(C)CCC[C@]21C [Totarol, totarol]
- MIC value (G. vaginalis): 0.005%
- difference in values of MIC concentrations (bacilli of the Lactobacillus genus versus Gardnerella vaginalis): approximately 10 fold
- viable count by quantitative culture (cfu/ml) (totarol 0.0002%, 0 h): 1.5 × 10^5 cfu/ml
- OD, average of 3 measurements (totarol 0.0002%, 0 h): 0.313
- viable count by quantitative culture (cfu/ml) (totarol 0.0002%, 8 h): 2 × 10^5 cfu/ml
- OD, average of 3 measurements (totarol 0.0002%, 8 h): 0.328
- viable count by quantitative culture (cfu/ml) (totarol 0.0002%, 16 h): 2 × 10^5 cfu/ml
- OD, average of 3 measurements (totarol 0.0002%, 16 h): 0.364
- viable count by quantitative culture (cfu/ml) (totarol 0.0002%, 24 h): 2.2 × 10^5 cfu/ml
- OD, average of 3 measurements (totarol 0.0002%, 24 h): 0.398
- viable count by quantitative culture (cfu/ml) (totarol 0.0004%, 0 h): 2.2 × 10^5 cfu/ml
- OD, average of 3 measurements (totarol 0.0004%, 0 h): 0.326
- viable count by quantitative culture (cfu/ml) (totarol 0.0004%, 8 h): 2 × 10^5 cfu/ml
- OD, average of 3 measurements (totarol 0.0004%, 8 h): 0.334
- viable count by quantitative culture (cfu/ml) (totarol 0.0004%, 16 h): 4.9 × 10^5 cfu/ml
- OD, average of 3 measurements (totarol 0.0004%, 16 h): 0.362
- viable count by quantitative culture (cfu/ml) (totarol 0.0004%, 24 h): 3.9 × 10^5 cfu/ml
- OD, average of 3 measurements (totarol 0.0004%, 24 h): 0.390
- viable count by quantitative culture (cfu/ml) (totarol 0.0007%, 0 h): 9 × 10^4 cfu/ml
- OD, average of 3 measurements (totarol 0.0007%, 0 h): 0.315
- viable count by quantitative culture (cfu/ml) (totarol 0.0007%, 8 h): 6 × 10^4 cfu/ml
- OD, average of 3 measurements (totarol 0.0007%, 8 h): 0.307
- viable count by quantitative culture (cfu/ml) (totarol 0.0007%, 16 h): 2.1 × 10^5 cfu/ml
- OD, average of 3 measurements (totarol 0.0007%, 16 h): 0.326
- viable count by quantitative culture (cfu/ml) (totarol 0.0007%, 24 h): 3.8 × 10^5 cfu/ml
- OD, average of 3 measurements (totarol 0.0007%, 24 h): 0.346
- viable count by quantitative culture (cfu/ml) (totarol 0.0013%, 0 h): 1 × 10^5 cfu/ml
- OD, average of 3 measurements (totarol 0.0013%, 0 h): 0.321
- viable count by quantitative culture (cfu/ml) (totarol 0.0013%, 8 h): 2.7 × 10^4 cfu/ml
- OD, average of 3 measurements (totarol 0.0013%, 8 h): 0.314
- viable count by quantitative culture (cfu/ml) (totarol 0.0013%, 16 h): 6.2 × 10^5 cfu/ml
- OD, average of 3 measurements (totarol 0.0013%, 16 h): 0.318
- viable count by quantitative culture (cfu/ml) (totarol 0.0013%, 24 h): 1.2 × 10^5 cfu/ml
- OD, average of 3 measurements (totarol 0.0013%, 24 h): 0.322
- viable count by quantitative culture (cfu/ml) (totarol 0.0025%, 0 h): 1.3 × 10^5 cfu/ml
- OD, average of 3 measurements (totarol 0.0025%, 0 h): 0.312
- viable count by quantitative culture (cfu/ml) (totarol 0.0025%, 8 h): 5 × 10^4 cfu/ml
- OD, average of 3 measurements (totarol 0.0025%, 8 h): 0.311
- viable count by quantitative culture (cfu/ml) (totarol 0.0025%, 16 h): 5.2 × 10^4 cfu/ml
- OD, average of 3 measurements (totarol 0.0025%, 16 h): 0.314
- viable count by quantitative culture (cfu/ml) (totarol 0.0025%, 24 h): 2.3 × 10^4 cfu/ml
- OD, average of 3 measurements (totarol 0.0025%, 24 h): 0.317
- viable count by quantitative culture (cfu/ml) (totarol 0.005%, 0 h): 3.1 × 10^5 cfu/ml
- OD, average of 3 measurements (totarol 0.005%, 0 h): 0.318
- viable count by quantitative culture (cfu/ml) (totarol 0.005%, 8 h): 0 cfu/ml
- OD, average of 3 measurements (totarol 0.005%, 8 h): 0.318
- viable count by quantitative culture (cfu/ml) (totarol 0.005%, 16 h): 0 cfu/ml
- OD, average of 3 measurements (totarol 0.005%, 16 h): 0.323
- viable count by quantitative culture (cfu/ml) (totarol 0.005%, 24 h): 0 cfu/ml
- OD, average of 3 measurements (totarol 0.005%, 24 h): 0.327
- viable count by quantitative culture (cfu/ml) (totarol 0.01%, 0 h): 1.6 × 10^5 cfu/ml
- OD, average of 3 measurements (totarol 0.01%, 0 h): 0.319
- viable count by quantitative culture (cfu/ml) (totarol 0.01%, 8 h): 0 cfu/ml
- OD, average of 3 measurements (totarol 0.01%, 8 h): 0.323
- viable count by quantitative culture (cfu/ml) (totarol 0.01%, 16 h): 0 cfu/ml
- OD, average of 3 measurements (totarol 0.01%, 16 h): 0.325
- viable count by quantitative culture (cfu/ml) (totarol 0.01%, 24 h): 0 cfu/ml
- OD, average of 3 measurements (totarol 0.01%, 24 h): 0.328
- viable count by quantitative culture (cfu/ml) (totarol 0.02%, 0 h): 2.1 × 10^5 cfu/ml
- OD, average of 3 measurements (totarol 0.02%, 0 h): 0.344
- viable count by quantitative culture (cfu/ml) (totarol 0.02%, 8 h): 0 cfu/ml
- OD, average of 3 measurements (totarol 0.02%, 8 h): 0.332
- viable count by quantitative culture (cfu/ml) (totarol 0.02%, 16 h): 0 cfu/ml
- OD, average of 3 measurements (totarol 0.02%, 16 h): 0.333
- viable count by quantitative culture (cfu/ml) (totarol 0.02%, 24 h): 0 cfu/ml
- OD, average of 3 measurements (totarol 0.02%, 24 h): 0.334
- viable count by quantitative culture (cfu/ml) (totarol 0.04%, 0 h): 3.7 × 10^5 cfu/ml
- OD, average of 3 measurements (totarol 0.04%, 0 h): 0.460
- viable count by quantitative culture (cfu/ml) (totarol 0.04%, 8 h): 0 cfu/ml
- OD, average of 3 measurements (totarol 0.04%, 8 h): 0.416
- viable count by quantitative culture (cfu/ml) (totarol 0.04%, 16 h): 0 cfu/ml
- OD, average of 3 measurements (totarol 0.04%, 16 h): 0.411
- viable count by quantitative culture (cfu/ml) (totarol 0.04%, 24 h): 0 cfu/ml
- OD, average of 3 measurements (totarol 0.04%, 24 h): 0.379
- viable count by quantitative culture (cfu/ml) (totarol 0.08%, 0 h): 6.1 × 10^5 cfu/ml
- OD, average of 3 measurements (totarol 0.08%, 0 h): 0.740
- viable count by quantitative culture (cfu/ml) (totarol 0.08%, 8 h): 0 cfu/ml
- OD, average of 3 measurements (totarol 0.08%, 8 h): 0.523
- viable count by quantitative culture (cfu/ml) (totarol 0.08%, 16 h): 0 cfu/ml
- OD, average of 3 measurements (totarol 0.08%, 16 h): 0.455
- viable count by quantitative culture (cfu/ml) (totarol 0.08%, 24 h): 0 cfu/ml
- OD, average of 3 measurements (totarol 0.08%, 24 h): 0.441
- viable count by quantitative culture (cfu/ml) (totarol 0.16%, 0 h): 1.4 × 10^5 cfu/ml
- OD, average of 3 measurements (totarol 0.16%, 0 h): 0.822
- viable count by quantitative culture (cfu/ml) (totarol 0.16%, 8 h): 0 cfu/ml
- OD, average of 3 measurements (totarol 0.16%, 8 h): 0.564
- viable count by quantitative culture (cfu/ml) (totarol 0.16%, 16 h): 0 cfu/ml
- OD, average of 3 measurements (totarol 0.16%, 16 h): 0.451
- viable count by quantitative culture (cfu/ml) (totarol 0.16%, 24 h): 0 cfu/ml
- OD, average of 3 measurements (totarol 0.16%, 24 h): 0.438
